Laboratory results published in article PMC7686577, “Discovery of Novel IDH1 Inhibitor Through Comparative Structure-Based Virtual Screening” (Frontiers in Pharmacology, 2020).

Tested on: advanced hematological malignancies
Experiment: not given
Set-up: method as in Foran et al., 2019
Conditions: clinic, ref Foran et al., 2019; cited from earlier work

| Compound | total overall response rate [%] |
| --- | --- |
| N#Cc1ccnc(N2C(=O)CC[C@H]2C(=O)N(c2cncc(F)c2)[C@H](C(=O)NC2CC(F)(F)C2)c2ccccc2Cl)c1 [AG-120] | 42 |

Target: mutant IDH1^R132H (Homo sapiens, UniProt O75874, R132H)
Experiment: IDH1^R132H enzymatic assay (diaphorase/resazurin readout of NADPH)
Assay type: biochemical
Conditions: not given
Procedure: This assay added into a 384-well blank plate and then incubated at room temperature for 60 min. […] Curve fitting for dose response IC50 was done using GraphPad Prism.
These 12 ligands were submitted to determine the IC50.

mutant IDH1^R132H, sequence (O75874 whole entry R132H): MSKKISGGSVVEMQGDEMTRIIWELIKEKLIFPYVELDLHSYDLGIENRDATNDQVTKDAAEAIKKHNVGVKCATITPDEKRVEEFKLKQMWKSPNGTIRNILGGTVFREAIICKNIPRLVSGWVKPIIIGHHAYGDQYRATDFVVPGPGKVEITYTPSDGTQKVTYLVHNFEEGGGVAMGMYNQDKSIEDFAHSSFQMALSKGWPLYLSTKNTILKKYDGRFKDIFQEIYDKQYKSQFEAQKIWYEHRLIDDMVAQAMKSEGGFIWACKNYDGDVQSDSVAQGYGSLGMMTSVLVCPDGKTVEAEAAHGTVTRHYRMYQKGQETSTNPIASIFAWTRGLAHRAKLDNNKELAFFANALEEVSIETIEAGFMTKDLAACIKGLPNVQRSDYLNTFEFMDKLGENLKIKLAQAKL

| Compound | IC50 [µM] |
| --- | --- |
| COc1ccc(C(=O)[C@@H](Cn2cncn2)[C@H](Sc2ccccc2)c2ccccc2)cc1 [AQ-714/41674992] | 20.8 ± 4.2 |
| O=C1C[C@H](C(=O)N(Cc2cccc3ccccc23)c2ccccn2)CN1Cc1ccccc1 [D491-0852] | 46.9 ± 6 |
| CCC[C@@H]1N=C2c3ccccc3N=C(S[C@@H](CC)C(=O)Nc3cccc(Cl)c3)N2C1=O [G568-0082] | 41.9 ± 8 |
| CCOC(=O)c1[nH]c(C)c(CN(Cc2ccccc2)C(=O)[C@@H](C)Oc2ccccc2)c1C [G798-0506] | 38 ± 2 |
| O=C(NCc1ccc(C(F)(F)F)cc1)c1nnn(-c2ccccc2Cl)c1-c1cccnc1 [L806-0255] | 28.3 ± 2.5 |
| O=C1CS[C@@H](c2cccc(NS(=O)(=O)c3ccc4ccccc4c3)c2)N1c1ccc(F)cc1 [V010-1281] | 50 ± 6.4 |
| O=C1C[C@H](C(=O)N(CCc2ccccc2)Cc2ccccc2)CN1Cc1cccc(Br)c1 [V015-1671] | 23.8 ± 1.8 |
| O=C(Cc1ccc(N(Cc2ccccc2)C(=O)c2cccc(F)c2)cc1)NCc1cccnc1 [V016-3750] | 42.9 ± 2.8 |
| CN(CC(=O)N1N=C(c2ccccc2Cl)C[C@H]1c1ccc2c(c1)OCO2)C(=O)C1CCCC1 [V025-9252] | 45.5 ± 3.1 |

Same assay, conditions: compound at 50 μM

| Compound | Inhibition ratio (%) 50 (μM) [%] |
| --- | --- |
| COc1ccc(C(=O)[C@@H](Cn2cncn2)[C@H](Sc2ccccc2)c2ccccc2)cc1 [AQ-714/41674992] | 73.30±1.90 |
| O=C1C[C@H](C(=O)N(Cc2cccc3ccccc23)c2ccccn2)CN1Cc1ccccc1 [D491-0852] | 58.00±0.60 |
| CCC[C@@H]1N=C2c3ccccc3N=C(S[C@@H](CC)C(=O)Nc3cccc(Cl)c3)N2C1=O [G568-0082] | 54.30±4.30 |
| CCOC(=O)c1[nH]c(C)c(CN(Cc2ccccc2)C(=O)[C@@H](C)Oc2ccccc2)c1C [G798-0506] | 61.15±6.15 |
| O=C(NCc1ccc(C(F)(F)F)cc1)c1nnn(-c2ccccc2Cl)c1-c1cccnc1 [L806-0255] | 66.25±3.25 |
| O=C1CS[C@@H](c2cccc(NS(=O)(=O)c3ccc4ccccc4c3)c2)N1c1ccc(F)cc1 [V010-1281] | 60.85±2.05 |
| O=C1C[C@H](C(=O)N(CCc2ccccc2)Cc2ccccc2)CN1Cc1cccc(Br)c1 [V015-1671] | 65.30±2.30 |
| O=C(Cc1ccc(N(Cc2ccccc2)C(=O)c2cccc(F)c2)cc1)NCc1cccnc1 [V016-3750] | 54.90±1.70 |
| CN(CC(=O)N1N=C(c2ccccc2Cl)C[C@H]1c1ccc2c(c1)OCO2)C(=O)C1CCCC1 [V025-9252] | 59.15±3.75 |
